# Source: US7807828B2, “Olanzapine analogs and methods of use thereof” (Hypnion, Inc., priority 2005, dated 2010)
# pKi: −log10 of the molar value. Read-outs that look alike come from different tables or passages of the source.
# Legend:
# [1] = system: adult, male Wistar rats; assay: Sleep-wakefulness monitoring (SCORE-2000, EEG/EMG) in rats; type: in vivo, rat; details: minutes; for LONGEST UNINTERRUPTED SLEEP BOUT 10 mg/kg / NREM CUMULATION 10 mg/kg: oral bolus at CT-18, 10 mg/kg; for LONGEST UNINTERRUPTED SLEEP BOUT 30 mg/kg / NREM CUMULATION 30 mg/kg: oral bolus at CT-18, 30 mg/kg
# Protocol: Sleep-wakefulness, locomotor activity and body temperature are monitored in male Wistar rats treated with a test compound (i.e., olanzapine analog) initially at a concentration of 10 mg/kg. Higher and lower doses are assayed for select compounds (e.g., as high as 45 mg/kg, and as low as necessary to establish a no-effect dose). Treatments are administered at CT-18, the peak of the activity dominated period (6 hours after lights-off), and produced soporific (sleep-inducing) effects characterized by increased non-REM sleep time, increased sleep continuity, but without evidence of REM sleep inhibition or rebound insomnia.
# Sleep-wakefulness, locomotor activity and body temperature were monitored in vivo with various compounds of the invention. Adult, male Wistar rats (250 g at time of surgery, Charles River Laboratories, Wilmington Mass.) were anesthetized (2% isoflourane in medical grade oxygen) and surgically prepared with a cranial implant to permit chronic electro-encephalogram (EEG) and electromyogram (EMG) recording. Body temperature and locomotor activity were monitored via a miniature transmitter (Mini-Mitter, Bend, Oreg.) surgically placed in the abdomen. The cranial implant consisted of stainless steel screws (two frontal (+3.2 AP from bregma, ±2.0 ML) and two occipital (−6.9 AP, ±5.5 ML)) for EEG recording. Two Teflon®-coated stainless steel wires were positioned under the nuchal trapezoid muscles for EMG recording. All leads were soldered to a miniature connector prior to surgery, and gas sterilized in ethylene oxide. The implant assembly was affixed to the skull with dental acrylic. A minimum of three weeks was allowed for surgical recovery.
# Each rat was permanently housed in its own individual recording cage located within separate, ventilated compartments of custom-designed stainless steel cabinets. Each cage was enhanced with a filter-top riser and low-torque swivel-commutator. Food and water were available ad libitum. A 24-hr light-dark cycle (12 hours light, 12 hours dark) was maintained throughout the study. Animals were undisturbed for at least 48 hours before and after treatments.
# Sleep and wakefulness were determined using “SCORE-2000™” (Hypnion, Worcester, Mass.)—an internet-based sleep-wake and physiological monitoring system. The system monitored amplified EEG (bandpass 1-30 Hz), integrated EMG (bandpass 10-100 Hz), body temperature and non-specific locomotor activity (LMA) via telemetry, and drinking activity, continuously and simultaneously. Arousal states were classified on-line as non-REM (NREM) sleep, REM sleep, wake, or theta-dominated wake every 10 seconds. Total drinking and locomotor activity counts, and body temperature were quantitiated and recorded each minute, using EEG feature extraction and pattern-matching algorithms. […] The classification algorithm used individually-taught EEG-arousal-state templates, plus EMG criteria to differentiate REM sleep from theta-dominated wakefulness, plus behavior-dependent contextual rules (e.g., if the animal was drinking, it is awake). Drinking and locomotor activity intensity (LMA) were recorded every 10 seconds, while body temperature was recorded each minute. Locomotor activity was detected by a telemetry receiver (Mini-Mitter) beneath the cage. Telemetry measures (LMA and body temperature) were not part of the scoring algorithm; thus, sleep-scoring and telemetry data were independent measures.
# Compounds were administered at CT-18, the peak of the activity-dominated period, sufficient time was allowed to view the time course of the treatment effect before lights-on (6 hours post-treatment). Compounds were suspended in sterile 0.25% or 0.5% methylcellulose (1-2 ml/kg). Treatments were administered orally as a bolus.
# A parallel group study design was employed. […]
# [2] = target: T1, H1 (hr) (Homo sapiens, UniProt P35367); assay: H1 (hr) Novascreen binding assay; details: Table 7A; Ki in nM
# T1 construct: Novascreen, MDS, Cerep (assay providers)
# Protocol: Binding assays were performed using various sleep-inducing agents and derivatives selected from those listed in Table 1 in competitive binding assays with known standards for the H1 histamine receptor, and the M1, M2, and M3 muscarinic receptors, alpha 1 and alpha 2 receptors, D1 and D2 receptors, 5HT2a, 5HT2b, 5HT2c, 5HT2c, and 5HT7 receptors.
# The histamine H1 assays are described in Chang, et al., Heterogeneity of Histamine H1-Receptors: Species Variation in [^3H]Mepyramine Binding of Brain Membranes. Journal of Neurochemistry. 32: 1653-1663 (1979); Martinez-Mir, M. I., Pollard, H., Moreau, J., et al. Three Histamine Receptors (H1, H2, and H3) Visualized in the Brain of Human and Non-Human Primates. Brain Res. 526: 322-327 (1990); Haaksma, E. E. J., Leurs, R. and Timmerman, H. Histamine Receptors: Subclasses and Specific Ligands. Pharmac. Ther. 47: 73-104 (1990). The muscarinic assays are described in Buckley, N. J., Bonner, T. I., Buckley, C. M., and Brann, M. R. Antagonist Binding Properties of Five Cloned Muscarinic Receptors Expressed in CHO-K1 Cells. Mol. Pharmacol. 35: 469-476 (1989). The assays were performed according to the preceding articles, with the following modifications. Chemical reagents in the following were obtained from Sigma, St. Louis, Mo.
# [3] = target: 5HT2b (h) (Homo sapiens, UniProt P41595); assay: 5HT2b (h) binding assay; details: Table 7B; unit inferred
# [4] = target: D2 (h) (Homo sapiens, UniProt P14416); assay: Dopamine D2 binding assay; details: Table 7A; unit inferred
# [5] = target: T2, 5HT2a (hctx) (Homo sapiens, UniProt P28223); assay: 5HT2a (hctx) binding assay; details: Table 7B; unit inferred
# T2 construct: (hctx); from tissue; host or cells: human cortex (my reading of 'hctx')
# [6] = target: T3, human recombinant M3 expressed in CHO cells (Homo sapiens, UniProt P20309); assay: M3 muscarinic receptor binding assay; details: Table 7A, third line of column M1 M2 M3
# T3 construct: purchased PerkinElmer, Inc., Wellesley, Mass; host or cells: CHO cells
# [7] = target: T4, human recombinant M1 expressed in CHO cells (Homo sapiens, UniProt P11229); assay: M1 muscarinic receptor binding assay; details: Table 7A, first line of column M1 M2 M3
# T4 construct: purchased PerkinElmer, Inc., Wellesley, Mass; host or cells: CHO cells
# T4 sequence (P11229 1-460): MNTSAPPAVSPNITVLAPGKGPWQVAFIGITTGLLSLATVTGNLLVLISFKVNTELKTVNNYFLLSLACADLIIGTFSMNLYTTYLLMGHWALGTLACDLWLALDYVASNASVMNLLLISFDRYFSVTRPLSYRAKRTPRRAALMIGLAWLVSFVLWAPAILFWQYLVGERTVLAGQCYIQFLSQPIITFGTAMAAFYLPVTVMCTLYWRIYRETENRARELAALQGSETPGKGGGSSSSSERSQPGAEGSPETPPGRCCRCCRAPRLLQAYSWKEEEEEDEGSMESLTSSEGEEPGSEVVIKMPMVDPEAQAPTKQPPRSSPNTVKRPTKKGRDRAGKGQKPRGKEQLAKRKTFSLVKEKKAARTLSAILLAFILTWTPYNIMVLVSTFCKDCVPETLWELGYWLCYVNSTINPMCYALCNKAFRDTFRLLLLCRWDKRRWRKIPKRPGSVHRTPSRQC
# [8] = target: 5HT2a (rat) (Rattus norvegicus, UniProt P14842); assay: 5HT2a (rat) binding assay; details: Table 7A; unit inferred
# [9] = target: T5, human recombinant M2 expressed in CHO cells (Homo sapiens, UniProt P08172); assay: M2 muscarinic receptor binding assay; details: Table 7A, M1 M2 M3
# T5 construct: purchased PerkinElmer, Inc., Wellesley, Mass; host or cells: CHO cells
# T5 sequence (P08172 1-466): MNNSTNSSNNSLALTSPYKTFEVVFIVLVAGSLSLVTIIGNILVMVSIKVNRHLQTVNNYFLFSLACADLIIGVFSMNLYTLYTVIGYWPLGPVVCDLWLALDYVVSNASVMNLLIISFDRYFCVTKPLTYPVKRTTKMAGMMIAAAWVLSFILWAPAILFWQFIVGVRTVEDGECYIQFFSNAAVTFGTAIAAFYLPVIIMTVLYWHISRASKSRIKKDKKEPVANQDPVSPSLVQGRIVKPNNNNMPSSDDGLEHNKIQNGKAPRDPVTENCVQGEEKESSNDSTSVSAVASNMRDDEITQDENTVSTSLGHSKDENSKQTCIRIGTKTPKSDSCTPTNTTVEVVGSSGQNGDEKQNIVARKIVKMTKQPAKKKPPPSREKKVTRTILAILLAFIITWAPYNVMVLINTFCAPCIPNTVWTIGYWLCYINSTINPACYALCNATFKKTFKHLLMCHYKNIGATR
# [10] = target: T6, histamine H1 receptor (bovine) (Bos taurus, UniProt P30546); assay: Histamine H1 binding assay, bovine cerebellar membranes, [3H]pyrilamine; details: Table 7A; Ki in nM
# T6 construct: the receptors were obtained from bovine cerebellar membrane tissue; from tissue; host or cells: bovine cerebellar membranes
# [11] = target: D1 (h) (Homo sapiens, UniProt P21728); assay: Dopamine D1 (human recombinant) binding assay; details: Table 7A; unit inferred
# Protocol: Dopamine, D1 (human recombinant) binding assay was performed according to published procedures. See, e.g., Jarvie, et al. J. Recept Res., 13(1-4): 573-90 (1993); and Billard, et al. Life Sciences, 35(18): 1885-93 (1984), with modifications
# [12] = target: T4, human recombinant M1 expressed in CHO cells; details: reference compounds; read-out: Ki of reference compounds in the M1 binding assay; cited from earlier work
# Chain of D2 (h) (P14416 whole entry): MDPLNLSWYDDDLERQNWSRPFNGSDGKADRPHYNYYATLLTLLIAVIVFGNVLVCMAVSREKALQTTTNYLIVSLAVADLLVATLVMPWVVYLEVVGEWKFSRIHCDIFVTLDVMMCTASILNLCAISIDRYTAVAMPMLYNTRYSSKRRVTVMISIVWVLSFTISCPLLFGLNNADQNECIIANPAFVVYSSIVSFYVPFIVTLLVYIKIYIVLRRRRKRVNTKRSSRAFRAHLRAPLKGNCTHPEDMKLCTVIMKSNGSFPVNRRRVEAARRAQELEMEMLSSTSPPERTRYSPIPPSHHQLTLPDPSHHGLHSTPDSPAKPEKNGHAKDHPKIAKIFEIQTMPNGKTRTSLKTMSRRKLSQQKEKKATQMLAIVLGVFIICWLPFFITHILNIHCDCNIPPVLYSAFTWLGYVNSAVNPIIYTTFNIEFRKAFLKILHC
# T2 sequence (P28223 whole entry): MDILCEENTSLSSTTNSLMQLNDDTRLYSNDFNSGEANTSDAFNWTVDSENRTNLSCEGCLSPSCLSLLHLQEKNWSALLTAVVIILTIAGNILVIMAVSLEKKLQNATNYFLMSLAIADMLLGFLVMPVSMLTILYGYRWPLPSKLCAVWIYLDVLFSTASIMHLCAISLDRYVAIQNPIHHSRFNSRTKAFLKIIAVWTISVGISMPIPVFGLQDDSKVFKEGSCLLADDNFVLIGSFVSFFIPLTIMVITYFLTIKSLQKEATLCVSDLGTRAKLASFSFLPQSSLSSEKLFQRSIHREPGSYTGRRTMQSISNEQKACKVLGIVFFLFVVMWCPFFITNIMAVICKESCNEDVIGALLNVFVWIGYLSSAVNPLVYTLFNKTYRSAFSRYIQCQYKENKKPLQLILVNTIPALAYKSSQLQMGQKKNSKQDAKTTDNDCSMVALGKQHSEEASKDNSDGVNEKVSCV
# T3 sequence (P20309 whole entry): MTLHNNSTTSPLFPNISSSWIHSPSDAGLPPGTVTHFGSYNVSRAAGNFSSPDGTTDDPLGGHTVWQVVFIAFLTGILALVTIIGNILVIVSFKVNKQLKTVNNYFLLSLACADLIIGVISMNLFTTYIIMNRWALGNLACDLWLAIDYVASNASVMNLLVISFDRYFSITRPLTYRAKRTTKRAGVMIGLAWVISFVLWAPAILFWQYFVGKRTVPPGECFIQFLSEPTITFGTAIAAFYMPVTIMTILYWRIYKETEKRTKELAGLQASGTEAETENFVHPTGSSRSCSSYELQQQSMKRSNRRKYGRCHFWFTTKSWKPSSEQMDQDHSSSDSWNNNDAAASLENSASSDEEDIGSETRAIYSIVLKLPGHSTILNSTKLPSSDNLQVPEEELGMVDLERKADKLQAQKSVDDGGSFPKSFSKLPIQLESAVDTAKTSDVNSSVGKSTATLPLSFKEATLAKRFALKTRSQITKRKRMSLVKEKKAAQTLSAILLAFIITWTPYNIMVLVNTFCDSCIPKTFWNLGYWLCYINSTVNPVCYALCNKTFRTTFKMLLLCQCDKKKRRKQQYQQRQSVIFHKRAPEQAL
# T6 sequence (P30546 whole entry): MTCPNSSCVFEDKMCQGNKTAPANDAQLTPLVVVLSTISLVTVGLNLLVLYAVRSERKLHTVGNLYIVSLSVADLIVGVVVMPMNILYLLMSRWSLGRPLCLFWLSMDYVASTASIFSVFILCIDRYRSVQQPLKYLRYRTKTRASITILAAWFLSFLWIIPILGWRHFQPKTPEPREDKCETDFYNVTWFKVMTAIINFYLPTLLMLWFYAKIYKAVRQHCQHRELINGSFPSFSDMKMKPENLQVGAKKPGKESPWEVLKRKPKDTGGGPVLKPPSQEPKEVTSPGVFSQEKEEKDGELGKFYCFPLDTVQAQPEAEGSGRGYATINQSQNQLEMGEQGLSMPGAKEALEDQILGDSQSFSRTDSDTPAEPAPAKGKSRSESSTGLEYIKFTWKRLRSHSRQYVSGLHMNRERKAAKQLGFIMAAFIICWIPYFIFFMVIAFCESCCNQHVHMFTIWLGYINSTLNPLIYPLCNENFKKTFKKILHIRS
# Chain of 5HT2b (h) (P41595 whole entry): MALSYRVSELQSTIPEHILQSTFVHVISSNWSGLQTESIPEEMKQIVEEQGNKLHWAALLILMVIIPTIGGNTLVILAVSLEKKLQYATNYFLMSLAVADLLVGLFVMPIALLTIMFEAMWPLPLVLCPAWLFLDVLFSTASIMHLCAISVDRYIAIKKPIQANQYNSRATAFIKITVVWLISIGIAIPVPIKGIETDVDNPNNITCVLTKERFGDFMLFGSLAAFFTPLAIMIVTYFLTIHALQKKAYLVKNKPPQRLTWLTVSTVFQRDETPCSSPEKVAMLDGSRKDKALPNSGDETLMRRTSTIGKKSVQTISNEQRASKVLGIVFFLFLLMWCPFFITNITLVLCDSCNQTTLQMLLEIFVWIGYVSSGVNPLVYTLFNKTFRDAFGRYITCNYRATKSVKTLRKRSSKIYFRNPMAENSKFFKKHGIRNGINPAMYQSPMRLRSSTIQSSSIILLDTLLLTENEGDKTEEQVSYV
# Chain of D1 (h) (P21728 whole entry): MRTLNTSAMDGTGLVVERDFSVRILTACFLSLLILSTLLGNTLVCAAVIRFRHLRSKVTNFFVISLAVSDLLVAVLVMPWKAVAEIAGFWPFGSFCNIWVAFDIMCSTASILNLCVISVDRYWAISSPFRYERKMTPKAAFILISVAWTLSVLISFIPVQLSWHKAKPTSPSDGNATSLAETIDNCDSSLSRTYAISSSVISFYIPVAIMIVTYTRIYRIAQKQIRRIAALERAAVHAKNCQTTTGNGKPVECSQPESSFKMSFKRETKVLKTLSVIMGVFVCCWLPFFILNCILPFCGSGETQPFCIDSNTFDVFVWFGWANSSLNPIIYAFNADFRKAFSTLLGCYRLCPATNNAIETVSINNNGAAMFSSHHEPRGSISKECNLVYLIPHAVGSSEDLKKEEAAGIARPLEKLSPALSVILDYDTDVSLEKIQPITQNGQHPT
# T1 sequence (P35367 whole entry): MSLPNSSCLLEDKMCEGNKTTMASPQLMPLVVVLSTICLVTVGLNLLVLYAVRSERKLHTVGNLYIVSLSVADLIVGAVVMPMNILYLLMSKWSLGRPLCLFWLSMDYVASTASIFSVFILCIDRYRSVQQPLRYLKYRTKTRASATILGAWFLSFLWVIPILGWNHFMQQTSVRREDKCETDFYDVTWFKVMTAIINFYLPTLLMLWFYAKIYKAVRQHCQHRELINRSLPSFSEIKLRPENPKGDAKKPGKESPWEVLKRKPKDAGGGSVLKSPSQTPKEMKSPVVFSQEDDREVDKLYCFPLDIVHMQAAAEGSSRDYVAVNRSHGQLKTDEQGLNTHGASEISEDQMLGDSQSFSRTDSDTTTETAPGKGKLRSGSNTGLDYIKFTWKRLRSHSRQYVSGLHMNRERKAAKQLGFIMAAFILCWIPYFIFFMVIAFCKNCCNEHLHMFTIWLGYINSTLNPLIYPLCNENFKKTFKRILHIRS
# Chain of 5HT2a (rat) (P14842 whole entry): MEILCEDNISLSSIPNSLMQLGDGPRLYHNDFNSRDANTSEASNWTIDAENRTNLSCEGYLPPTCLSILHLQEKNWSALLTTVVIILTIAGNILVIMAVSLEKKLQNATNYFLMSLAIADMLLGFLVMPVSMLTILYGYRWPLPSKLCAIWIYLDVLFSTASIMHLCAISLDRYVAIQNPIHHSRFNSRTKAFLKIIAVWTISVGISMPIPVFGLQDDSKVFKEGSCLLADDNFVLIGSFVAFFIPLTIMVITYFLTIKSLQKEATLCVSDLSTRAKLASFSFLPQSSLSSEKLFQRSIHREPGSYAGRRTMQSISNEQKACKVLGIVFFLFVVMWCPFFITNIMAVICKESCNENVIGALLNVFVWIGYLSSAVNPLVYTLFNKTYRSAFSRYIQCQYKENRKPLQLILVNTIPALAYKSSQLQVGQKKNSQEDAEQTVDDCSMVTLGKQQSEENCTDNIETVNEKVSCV
structure (smiles),measurement,setting,value
Cc1cc2c(s1)Nc1cc(F)ccc1N=C2N1CCN(CC(C)(C)C(=O)O)CC1 [Compound 101],LONGEST UNINTERRUPTED SLEEP BOUT 10 mg/kg,[1],5.9 ± 2.4 min
same,NREM CUMULATION 10 mg/kg,[1],51 ± 8 min
Cc1ccc2c(c1)Nc1sc(C)cc1C(N1CCN(CCC(=O)O)CC1)=N2 [Compound 97],LONGEST UNINTERRUPTED SLEEP BOUT 10 mg/kg,[1],-3.6 ± 2.6 min
same,NREM CUMULATION 10 mg/kg,[1],7 ± 3 min
Cc1cc2c(s1)Nc1ccccc1N=C2N1CCN(CCCC(=O)O)CC1 [Compound 93],LONGEST UNINTERRUPTED SLEEP BOUT 10 mg/kg,[1],-3.0 ± 2.8 min
same,NREM CUMULATION 10 mg/kg,[1],16 ± 6 min
same,LONGEST UNINTERRUPTED SLEEP BOUT 30 mg/kg,[1],2.0 ± 1.5 min
same,NREM CUMULATION 30 mg/kg,[1],10 ± 5 min
Cc1ccc2c(c1)Nc1sc(C)cc1C(N1CCN(CC(C)(C)C(=O)O)CC1)=N2 [Compound 95],Ki,[2],200 nM
same,LONGEST UNINTERRUPTED SLEEP BOUT 10 mg/kg,[1],15.8 ± 5.2 min
same,NREM CUMULATION 10 mg/kg,[1],43 ± 5 min
same,pKi,[3],6.62
same,pKi,[4],6.01
same,pKi,[5],7.55
Cc1ccc2c(c1)N=C(N1CCN(CC(C)(C)C(=O)O)CC1)c1cc(C)sc1N2 [Compound 52],LONGEST UNINTERRUPTED SLEEP BOUT 10 mg/kg,[1],5.9 ± 2.3 min
same,NREM CUMULATION 10 mg/kg,[1],25 ± 5 min
Cc1cc2c(s1)Nc1ccccc1N=C2N1CCN(CC(C)(C)C(=O)NS(C)(=O)=O)CC1 [Compound 89],pKi,[6],< 5.00
same,LONGEST UNINTERRUPTED SLEEP BOUT 10 mg/kg,[1],5.7 ± 1.8 min
same,NREM CUMULATION 10 mg/kg,[1],14 ± 7 min
same,LONGEST UNINTERRUPTED SLEEP BOUT 30 mg/kg,[1],13.6 ± 2.7 min
same,NREM CUMULATION 30 mg/kg,[1],37 ± 6 min
same,pKi,[7],< 5.00
same,pKi,[8],7.53
same,pKi,[4],6.03
same,pKi,[9],< 5.00
same,Ki,[10],139 nM
same,pKi,[11],5.19
same,pKi,[5],6.00
C[N+]1(C)CCC(OC(=O)C(c2ccccc2)c2ccccc2)CC1 [4-DAMP methiodide],pKi,[12],9.57
CC(C)(CN1CCN(C2=Nc3ccccc3Nc3sccc32)CC1)C(=O)O [Compound 1],pKi,[6],< 5.00
same,LONGEST UNINTERRUPTED SLEEP BOUT 10 mg/kg,[1],-7.0 ± 2.4 min
same,NREM CUMULATION 10 mg/kg,[1],6 ± 6 min
same,LONGEST UNINTERRUPTED SLEEP BOUT 30 mg/kg,[1],4.1 ± 2.1 min
same,NREM CUMULATION 30 mg/kg,[1],12 ± 5 min
same,pKi,[7],< 5.00
same,pKi,[9],< 5.00
same,Ki,[10],2310 nM
COc1ccc2c(c1)Nc1sc(C)cc1C(N1CCN(CC(C)(C)C(=O)O)CC1)=N2 [Compound 98],LONGEST UNINTERRUPTED SLEEP BOUT 10 mg/kg,[1],-6.2 ± 2.7 min
same,NREM CUMULATION 10 mg/kg,[1],12 ± 7 min
